We go through one compound from article PMC6438731, “Extrasynaptic δ‐GABAA receptors are high‐affinity muscimol receptors” (Journal of Neurochemistry, 2019).

Where “and” joins values, the source holds several entries; their conditions need not be identical. Equal entries are not always repeated. Where two headings read alike, the source gives them in different places.

The target of series [1] is cerebellar membranes of WT mice. Put plainly: [^3H]muscimol binding kinetics, WT cerebellar membranes. Set-up: species or system mouse. The procedure:
(§1) WT and δKO forebrain and cerebellar membranes were prepared using a modification of the method of Squires and Saederup (2000) essentially as described by Uusi‐Oukari et al. (2014). […] forebrain along with midbrain region was homogenized into 10 mM Tris‐HCl, pH 8.0 buffer containing 2 mM EDTA, using an Ultra‐Turrax T25 (Janke & Kunkel IKA labortechnik) for 20 s at 9500 rpm. The homogenates were centrifuged at 20 000 g for 10 min at +4°C and the resulting pellets were washed three times by resuspension and re‐centrifugation with 10 mM Tris‐HCl, pH 8.5 buffer containing 0.2 M NaCl, and 5 mM EDTA. The resulting pellets were then suspended in ice‐cold H2O and centrifuged. The pellets were again washed three times with Tris, pH 8.5/NaCl/EDTA as described above. The resulting pellets were finally suspended in assay buffer consisting of 50 mM Tris‐base, pH adjusted to 7.4 with citric acid, and frozen at −70°C. Before a binding experiment, the suspension was thawed, centrifuged, and suspended in assay buffer.
(§2) The binding of [^3H]muscimol (5 nM) was measured in assay buffer at 22°C in a total volume of 300 μL. Triplicate technical replicates of mouse forebrain (190–215 μg protein), cerebellar (180–210 μg protein) or HEK cell (92–132 μg protein) membranes for each time point were incubated with shaking for various times (15 s–15 min) to measure association of the binding. […] Air‐dried filters were immersed in 3 mL of Optiphase HiSafe 3 scintillation fluid (Wallac, Turku, Finland) and radioactivity determined in a Wallac model 1410 liquid scintillation counter (Wallac, Turku, Finland). […]
(§3) The tubes were mixed and incubations at 22°C were terminated at various time points (30 s – 30 min) as described above. Dissociation of [^3H]muscimol from recombinant receptors in HEK cell membranes was also measured at 0–4°C (on ice) to evaluate how fast [^3H]muscimol dissociates from receptors while washing the filter with ice‐cold assay buffer during filtration.

In series [2] the target is native δ‐GABAARs in the cerebellum (WT‐δKO, α6βδ) (Mus musculus, UniProt P16305+P63137). Description: [^3H]muscimol binding kinetics, cerebellum WT‐δKO (subtracted). The following applies: 22°C. The procedure:
as §1, §2
(§4) The tubes were mixed and incubations at 22°C were terminated at various time points (30 s – 30 min) as described above. Dissociation of [^3H]muscimol from recombinant receptors in HEK cell membranes was also measured at 0–4°C (on ice) to evaluate how fast [^3H]muscimol dissociates from receptors while washing the filter with ice‐cold assay buffer during filtration. […]

On the set-up of series [3]: method as in Maggi and Enna 1979. The note with it: rat brain, ref Maggi and Enna 1979; cited from earlier work.
Series [4] deals with forebrain membranes of δKO mice (non‐δ‐GABAARs). Put plainly: [^3H]muscimol binding kinetics, δKO forebrain membranes. Set-up: species or system mouse. On the procedure:
as §1
(§5) The binding of [^3H]muscimol (5 nM) was measured in assay buffer at 22°C in a total volume of 300 μL. Triplicate technical replicates of mouse forebrain (190–215 μg protein), cerebellar (180–210 μg protein) or HEK cell (92–132 μg protein) membranes for each time point were incubated with shaking for various times (15 s–15 min) to measure association of the binding. […] The incubation was terminated by filtration of the samples with a Brandel Cell Harvester (model M‐24, Gaithersburg, MD, USA) onto Whatman GF/B filters (Whatman International Ltd., Maidstone, UK). The samples were rinsed twice with 4–5 mL of ice‐cold assay buffer. Filtration and rinsing steps took a total time of ~15 s. Air‐dried filters were immersed in 3 mL of Optiphase HiSafe 3 scintillation fluid (Wallac, Turku, Finland) and radioactivity determined in a Wallac model 1410 liquid scintillation counter (Wallac, Turku, Finland). The maximal binding disintegrations per minute (DPM) values (at 15 min in association) for recombinant studies with 5 nM [^3H]muscimol were between 700 and 2500 DPMs of specific binding (background subtracted). In native membranes, the maximal DPM values were between 2500 and 3000 for WTs and 1300–1500 for δKOs.
as §3

Series [5] addresses T1, α6β3δ recombinant GABAA receptor (Rattus norvegicus, UniProt P30191+P63079).
T1 construct: expressed in transfected cells; host or cells: HEK293 (ATCC CRL-1573), pRK5 plasmids, membranes
Put plainly: [^3H]muscimol binding kinetics, recombinant α6β3δ in HEK293 membranes.
Description: (§6) Human embryonic kidney (HEK) 293 cells (ATCC Cat# CRL‐1573; RRID: CVCL_0045; a commonly misidentified cell line by ICLAC; last authenticated by STR DNA profiling in December 2018) were transfected with rat cDNAs (α1, L08490; α6, L08495; β2, X15467; β3, X15468; γ2S, L08497; δ, L08496) in pRK5 plasmids under the control of the cytomegalovirus promoter (Uusi‐Oukari et al. 2000), using the calcium phosphate precipitation method essentially as described (Lüddens and Korpi 1997). The plasmids were used in 1 : 1 and 1 : 1 : 1 ratios for transfections containing 2 [(α1 or α6) + (β2 or β3)] or 3 [(α1 or α6) + (β2 or β3) + (γ2S or δ)] different subunits, respectively (5 μg of each plasmid DNA for a 10 cm plate). Mock transfection was done using 5 μg pRK5 plasmid backbone. The cells were harvested 48 h after transfection. Culture medium was removed and the cells were detached from the plates by pipetting in ice‐cold assay buffer containing 2 mM EDTA. The cells were homogenized (Ultra Turrax, 20 s at 9500 rpm), the homogenates centrifuged at 20 000 g for 10 min at +4°C, and washed once with the same buffer. The homogenates were finally suspended in assay buffer (1 mL/plate) and either used directly to binding assays or stored frozen at −70°C.
The binding of [^3H]muscimol (5 nM) was measured in assay buffer at 22°C in a total volume of 300 μL. […] Air‐dried filters were immersed in 3 mL of Optiphase HiSafe 3 scintillation fluid (Wallac, Turku, Finland) and radioactivity determined in a Wallac model 1410 liquid scintillation counter (Wallac, Turku, Finland). […]
as §3

For series [6], the target named is T2, α6β2γ2 recombinant GABAA receptor (Rattus norvegicus, UniProt P30191+P63138).
T2 construct: expressed in transfected cells; host or cells: HEK293 (ATCC CRL-1573), pRK5 plasmids, membranes
Description: [^3H]muscimol binding kinetics, recombinant α6β2γ2 in HEK293 membranes.
Description: as §6
as §5, with “In native membranes, the maximal DPM values were between 2500 and 3000 for WTs and 1300–1500 for δKOs.” left out
as §3

Series [7] deals with cerebellar membranes of δKO mice. Description: Saturation analysis of [^3H]muscimol binding, δKO cerebellar membranes. Set-up: species or system mouse. The following applies: 0°C. The procedure:
as §1
(§7) Saturation analysis of [^3H]muscimol to WT and δKO mouse forebrain and cerebellar membranes was performed essentially as described by Uusi‐Oukari and Korpi (1989). […] The incubations were terminated as described above.

Series [8] deals with native δ‐GABAARs in the forebrain (WT‐δKO, predominantly α4βδ) (Mus musculus, UniProt P63137+Q9D6F4). Put plainly: [^3H]muscimol binding kinetics, forebrain WT‐δKO (subtracted). The note with it: 22°C. On the procedure:
as §1, §2, §4

The target in series [9] is cerebellar membranes of WT mice. Put plainly: Saturation analysis of [^3H]muscimol binding, WT cerebellar membranes. Set-up: species or system mouse. The note with it: 0°C. The procedure: as §1, §7
The target in series [10] is forebrain membranes of δKO mice. Put plainly: Saturation analysis of [^3H]muscimol binding, δKO forebrain membranes. Set-up: species or system mouse. The note with it: 0°C. The procedure:
as §1, §7

[11] abbreviates: room temperature (22°C), 5 nM [^3H]muscimol.
[12] abbreviates: cerebellum WT‐δKO (native δ‐GABAARs, by subtraction).
Setting [13] is: forebrain WT‐δKO (native δ‐GABAARs, by subtraction).

T1 sequence (P30191 20-453): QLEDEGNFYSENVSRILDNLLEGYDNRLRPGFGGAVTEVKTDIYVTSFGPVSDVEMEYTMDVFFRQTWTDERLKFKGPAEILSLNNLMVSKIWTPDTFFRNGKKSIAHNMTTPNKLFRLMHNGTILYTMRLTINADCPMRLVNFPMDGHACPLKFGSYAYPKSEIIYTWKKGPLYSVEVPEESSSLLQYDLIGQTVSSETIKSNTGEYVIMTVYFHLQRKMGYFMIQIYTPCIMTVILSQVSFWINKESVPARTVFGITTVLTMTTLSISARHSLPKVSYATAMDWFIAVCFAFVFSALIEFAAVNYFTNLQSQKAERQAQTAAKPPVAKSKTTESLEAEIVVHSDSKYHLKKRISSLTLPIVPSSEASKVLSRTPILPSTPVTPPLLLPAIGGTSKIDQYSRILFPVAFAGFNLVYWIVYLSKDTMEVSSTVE
T1 sequence (P63079 26-473): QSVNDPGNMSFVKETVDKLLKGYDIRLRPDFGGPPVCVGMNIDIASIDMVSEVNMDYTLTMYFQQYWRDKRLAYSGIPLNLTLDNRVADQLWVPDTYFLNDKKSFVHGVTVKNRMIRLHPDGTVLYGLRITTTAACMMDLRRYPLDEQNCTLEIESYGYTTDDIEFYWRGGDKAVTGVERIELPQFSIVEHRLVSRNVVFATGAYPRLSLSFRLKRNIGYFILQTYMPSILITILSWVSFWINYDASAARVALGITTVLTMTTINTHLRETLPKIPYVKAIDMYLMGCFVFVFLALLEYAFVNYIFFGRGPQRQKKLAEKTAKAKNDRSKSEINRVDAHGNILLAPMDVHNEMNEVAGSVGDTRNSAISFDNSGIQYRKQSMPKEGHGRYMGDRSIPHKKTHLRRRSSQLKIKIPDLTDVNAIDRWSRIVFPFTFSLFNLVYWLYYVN
T1 sequence (P18506 25-449 partner): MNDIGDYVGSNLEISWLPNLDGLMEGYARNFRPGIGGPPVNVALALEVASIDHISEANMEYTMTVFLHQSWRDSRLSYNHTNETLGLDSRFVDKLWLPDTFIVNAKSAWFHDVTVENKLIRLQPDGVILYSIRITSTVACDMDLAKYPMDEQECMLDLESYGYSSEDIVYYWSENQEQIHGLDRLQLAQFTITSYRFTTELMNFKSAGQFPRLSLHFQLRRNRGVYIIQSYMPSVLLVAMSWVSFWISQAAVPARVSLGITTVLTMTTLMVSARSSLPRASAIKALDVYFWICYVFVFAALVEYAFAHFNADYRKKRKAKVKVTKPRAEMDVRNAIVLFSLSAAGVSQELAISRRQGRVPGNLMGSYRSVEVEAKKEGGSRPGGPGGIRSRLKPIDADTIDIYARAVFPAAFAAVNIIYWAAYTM
T2 sequence (P30191 20-453): as the sequence (P30191 20-453) above
T2 sequence (P63138 26-474): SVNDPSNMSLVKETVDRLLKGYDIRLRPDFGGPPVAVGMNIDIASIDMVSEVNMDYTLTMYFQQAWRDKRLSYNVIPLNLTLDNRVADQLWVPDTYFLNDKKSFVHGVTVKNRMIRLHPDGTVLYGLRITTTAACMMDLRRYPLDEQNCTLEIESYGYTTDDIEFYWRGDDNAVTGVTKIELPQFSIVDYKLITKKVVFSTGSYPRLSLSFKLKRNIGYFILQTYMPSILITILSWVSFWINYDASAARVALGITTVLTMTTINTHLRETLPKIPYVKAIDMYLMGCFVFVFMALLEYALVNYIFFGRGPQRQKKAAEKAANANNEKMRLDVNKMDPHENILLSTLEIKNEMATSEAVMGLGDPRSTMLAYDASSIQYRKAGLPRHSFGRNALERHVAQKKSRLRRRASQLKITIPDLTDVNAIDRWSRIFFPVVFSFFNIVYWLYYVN
T2 sequence (P18508 39-466 partner): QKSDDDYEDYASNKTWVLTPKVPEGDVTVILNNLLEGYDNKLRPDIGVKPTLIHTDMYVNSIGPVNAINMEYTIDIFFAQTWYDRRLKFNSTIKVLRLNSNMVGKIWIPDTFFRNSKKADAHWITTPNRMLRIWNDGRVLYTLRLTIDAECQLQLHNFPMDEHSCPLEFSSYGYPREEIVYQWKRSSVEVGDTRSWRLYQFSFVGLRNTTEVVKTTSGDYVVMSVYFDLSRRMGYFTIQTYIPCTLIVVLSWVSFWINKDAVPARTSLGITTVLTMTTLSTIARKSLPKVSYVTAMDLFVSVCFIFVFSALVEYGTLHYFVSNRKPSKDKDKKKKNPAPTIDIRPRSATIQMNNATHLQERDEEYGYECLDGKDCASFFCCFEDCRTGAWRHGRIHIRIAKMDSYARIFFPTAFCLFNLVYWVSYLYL
Sequence of native δ‐GABAARs in the cerebellum (WT‐δKO, α6βδ) (P16305 20-453): as the sequence (P30191 20-453) above, with H121Q, S163T, K325T, T333A, T334S, E338Q, V371A, P379K, T384S, I392T counted along it
Sequence of native δ‐GABAARs in the cerebellum (WT‐δKO, α6βδ) (P63137 26-512): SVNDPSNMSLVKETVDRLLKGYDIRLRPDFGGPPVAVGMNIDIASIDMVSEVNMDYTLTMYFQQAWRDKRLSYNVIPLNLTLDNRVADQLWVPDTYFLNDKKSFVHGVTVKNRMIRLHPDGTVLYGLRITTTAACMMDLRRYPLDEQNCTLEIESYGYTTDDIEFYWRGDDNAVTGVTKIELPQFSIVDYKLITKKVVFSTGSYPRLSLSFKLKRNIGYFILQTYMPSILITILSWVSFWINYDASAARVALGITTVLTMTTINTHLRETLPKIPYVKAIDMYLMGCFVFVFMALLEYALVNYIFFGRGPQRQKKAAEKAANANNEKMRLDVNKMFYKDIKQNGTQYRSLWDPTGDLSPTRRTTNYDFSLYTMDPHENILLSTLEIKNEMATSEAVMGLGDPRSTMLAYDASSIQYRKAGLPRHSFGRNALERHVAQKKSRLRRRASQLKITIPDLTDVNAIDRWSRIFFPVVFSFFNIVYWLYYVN
Sequence of native δ‐GABAARs in the cerebellum (WT‐δKO, α6βδ) (P22933 25-449 partner): as the sequence (P18506 25-449 partner) above, with P38A, M149L counted along it
Sequence of native δ‐GABAARs in the forebrain (WT‐δKO, predominantly α4βδ) (Q9D6F4 36-552): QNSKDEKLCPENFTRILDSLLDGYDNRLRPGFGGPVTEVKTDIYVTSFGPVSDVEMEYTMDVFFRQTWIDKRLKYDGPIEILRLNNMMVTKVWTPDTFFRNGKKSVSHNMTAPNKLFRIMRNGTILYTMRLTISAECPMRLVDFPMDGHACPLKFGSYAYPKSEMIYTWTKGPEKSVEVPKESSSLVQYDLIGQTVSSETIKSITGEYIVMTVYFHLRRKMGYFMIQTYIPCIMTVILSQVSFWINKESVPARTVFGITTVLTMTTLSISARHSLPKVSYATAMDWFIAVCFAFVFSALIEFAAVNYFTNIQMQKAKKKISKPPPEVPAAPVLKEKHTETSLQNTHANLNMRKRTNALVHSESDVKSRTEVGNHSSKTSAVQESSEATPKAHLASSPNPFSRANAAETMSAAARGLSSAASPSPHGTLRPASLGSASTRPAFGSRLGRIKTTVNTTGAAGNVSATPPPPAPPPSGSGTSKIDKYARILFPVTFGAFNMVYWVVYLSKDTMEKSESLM
Sequence of native δ‐GABAARs in the forebrain (WT‐δKO, predominantly α4βδ) (P63137 26-512): as the sequence (P63137 26-512) above
Sequence of native δ‐GABAARs in the forebrain (WT‐δKO, predominantly α4βδ) (P22933 25-449 partner): as the sequence (P18506 25-449 partner) above, with P38A, M149L counted along it

As to `NCc1cc(=O)[nH]o1` [[^3H]muscimol] [[Methylene‐^3H]muscimol], the Kd in [1] (22°C, K D = koff/kon) is 1.7 nM; in series [2] (cerebellum WT‐δKO (native δ‐GABAARs, α6βδ), K D = koff/kon), ~1 nM and 1 nM; in series [4] (calculated from k on and k off, read-out: apparent [^3H]muscimol affinities (K D) for non‐δ‐GABAARs), about 1 nM; in [4] (forebrain membranes, 22°C, K D = koff/kon, read-out: K D), 1.1 nM; in series [5] (22°C, K D = koff/kon), 0.72 nM; in series [6] (22°C, K D = koff/kon) it was 1.6 nM. In series [8] (forebrain WT‐δKO (native δ‐GABAARs, α4βδ), K D = koff/kon), the Kd was ~1.6 nM and 1.6 nM. The k off in series [1] (room temperature (22°C)) was 0.00783 ± 0.00233 s⁻¹; in series [2] (setting [12]), 0.002 ± 0.0005 s⁻¹; in series [4] (forebrain membranes, room temperature (22°C)), 1.67 ± 0.15 ^*** min^−1; in [5] (room temperature (22°C)), 0.13 ± 0.01 ^### min^−1; in series [6] (+4 °C) it was 0.086 ± 0.010 ^, ^** min^−1; in series [6] (room temperature (22°C)) it was 0.98 ± 0.02 ^### ^, ^††† min^−1. Moreover, the k off in series [8] (setting [13]) is 0.00383 ± 0.00033 s⁻¹. For the same compound, the k on was 2.8 ± 0.2 × 10^8 M^−1 × min^−1 in series [1] (setting [11]); 1.2 ± 0.2 × 10^8 M^−1 × min^−1 in [2] (setting [12]); 15 ± 3.1 × 10^8 ^** M^−1 × min^−1 in [4] (forebrain membranes, room temperature (22°C), 5 nM [^3H]muscimol); 1.8 ± 0.1 × 10^8, ^### M^−1 × min^−1 in [5] (setting [11]); 6.3 ± 0.5 × 10^8, ^### ^, ^††† M^−1 × min^−1 in series [6] (setting [11]); 1.4 ± 0.2 × 10^8 M^−1 × min^−1 in [8] (setting [13]). Besides, in series [3], the “fraction of peripherally injected [^3H]muscimol that entered the brain” value was “around 0.02%”. For the same compound, the results for the “Apparent pKD” value in [7], in series [9] and in series [10] were 8.15 ± 0.02, 8.34 ± 0.01 and 7.68 ± 0.05, respectively.
